Read-outs that look alike come from different tables or passages of the source.
Key:
Assay type in all cases: in vivo
Avena fatua (AVEFA) [1] = assay: Pre-emergence herbicidal action against AVEFA; conditions: visual scoring after about 3 weeks vs untreated controls
From the text: (§1) Seeds of monocotyledonous and dicotyledonous weed plants and crop plants are placed in plastic or organic planting pots and covered with soil. The compounds of the invention, formulated in the form of wettable powders (WP) or as emulsion concentrates (EC), are then applied to the surface of the covering soil as aqueous suspension or emulsion with addition of 0.5% additive at a water application rate equivalent to 600 l/ha. After the treatment, the pots are placed in a greenhouse and kept under good growth conditions for the trial plants. After about 3 weeks, the effect of the preparations is scored visually in comparison with untreated controls as percentages. For example, 100% activity=the plants have died, 0% activity=like control plants.
(§2) Tables A1 to A13 below show the effects of selected compounds of the general formula (I) on various harmful plants and at an application rate corresponding to 320 g/ha or lower, which were obtained by the experimental procedure mentioned above. The appendices “a”, “b” and “c” give differentiation by dosage used with otherwise the same harmful plants tested.

[2] = system: Verconica persica (VERPE); assay: Pre-emergence herbicidal action against VERPE
From the text: as §1, §2

Setaria viridis (SETVI) [3] = assay: Post-emergence herbicidal action against SETVI
Experimental: (§3) Seeds of monocotyledonous and dicotyledonous weeds and crop plants are placed in sandy loam in plastic or organic planting pots, covered with soil and cultivated in a greenhouse under controlled growth conditions. 2 to 3 weeks after sowing, the test plants are treated at the one-leaf stage. The compounds of the invention, formulated in the form of wettable powders (WP) or as emulsion concentrates (EC), are then sprayed onto the green parts of the plants as aqueous suspension or emulsion with addition of 0.5% additive at a water application rate of 600 l/ha (converted). After the test plants have been kept in the greenhouse under optimum growth conditions for about 3 weeks, the activity of the preparations is rated visually in comparison to untreated controls. For example, 100% activity=the plants have died, 0% activity=like control plants.
(§4) Tables B1 to B13 below show the effects of selected compounds of the general formula (I) according to Table 1 on various harmful plants and at an application rate corresponding to 320 g/ha or lower, which were obtained by the experimental procedure mentioned above. The appendices “a”, “b” and “c” give differentiation by dosage used with otherwise the same harmful plants tested.

[4] = system: Verconica persica (VERPE); assay: Post-emergence herbicidal action against VERPE
Experimental: as §3, §4

[5] = system: Pharbitis purpurea (PHBPU); assay: Post-emergence herbicidal action against PHBPU
Experimental: as §3, §4

[6] = system: Amaranthus retroflexus (AMARE); assay: Pre-emergence herbicidal action against AMARE; conditions: visual scoring after about 3 weeks vs untreated controls
From the text: as §1, §2

[7] = system: Echinochloa crus-galli (ECHCG); assay: Post-emergence herbicidal action against ECHCG
Experimental: as §3, §4

Viola tricolor (VIOTR) [8] = assay: Pre-emergence herbicidal action against VIOTR
From the text: as §1, §2

[9] = system: Echinochloa crus-galli (ECHCG); assay: Pre-emergence herbicidal action against ECHCG; conditions: dosage 320 g/ha
From the text: as §1, §2

[10] = system: Amaranthus retroflexus (AMARE); assay: Post-emergence herbicidal action against AMARE
Experimental: as §3, §4

Lolium rigidum (LOLRI) [11] = assay: Post-emergence herbicidal action against LOLRI
Experimental: as §3, §4

Avena fatua (AVEFA) [12] = assay: Post-emergence herbicidal action against AVEFA; conditions: visual rating about 3 weeks after treatment
Experimental: as §3, §4

[13] = system: Alopecurus myosuroides (ALOMY); assay: Pre-emergence herbicidal action against ALOMY; conditions: scored visually after about 3 weeks, 100% = plants have died
From the text: as §1, §2

[14] = system: Matricaria inodora (MATIN); assay: Pre-emergence herbicidal action against MATIN; conditions: dosage 320 g/ha
From the text: as §1, §2

Oryza sativa (ORYSA) = conditions: crop plant compatibility
Experimental: as §3
(§5) The observed effects on selected crop plants are reported here in comparison to the untreated controls (values in %). The appendices “a”, “b” and “c” give differentiation by dosage used with otherwise the same crop plants tested.

Zea mays (ZEAMX) = conditions: for Post-emergence action against ZEAMX in % (crop plant compatibility): 20 g/ha, effect in comparison to untreated controls; for Post-emergence action against ZEAMX in %: crop plant compatibility, effect vs untreated controls
Experimental: as §3, §5

[15] = system: Alopecurus myosuroides (ALOMY); assay: Post-emergence herbicidal action against ALOMY; conditions: visual rating about 3 weeks after treatment vs untreated controls (100% = plants have died, 0% = like control plants)
Experimental: as §3, §4

Lolium rigidum (LOLRI) [16] = assay: Pre-emergence herbicidal action against LOLRI
From the text: as §1, §2

Setaria viridis (SETVI) [17] = assay: Pre-emergence herbicidal action against SETVI
From the text: as §1, §2

[18] = system: Polygonum convolvulus (POLCO); assay: Pre-emergence herbicidal action against POLCO
From the text: as §1, §2

[19] = system: Polygonum convolvulus (POLCO); assay: Post-emergence herbicidal action against POLCO; conditions: dosage 320 g/ha
Experimental: as §3, §4

[20] = system: Abutilon theophrasti (ABUTH); assay: Post-emergence herbicidal action against ABUTH; conditions: 320 g/ha, visual rating about 3 weeks after treatment vs untreated controls (100% = plants have died, 0% = like control plants)
Experimental: as §3, §4

Viola tricolor (VIOTR) [21] = assay: Post-emergence herbicidal action against VIOTR; conditions: 320 g/ha
Experimental: as §3, §4

[22] = 80 g/ha, visual rating about 3 weeks after treatment vs untreated controls (100% = plants have died, 0% = like control plants)
[23] = 20 g/ha, effect vs untreated controls
[24] = 80 g/ha, effect in comparison to untreated controls

| Post-emergence action against ORYSA in % (Oryza sativa (ORYSA); [23]) | Post-emergence action against ORYSA in % (Oryza sativa (ORYSA); [24]) | Post-emergence action against ZEAMX in % (crop plant compatibility) (Zea mays (ZEAMX)) | SMILES | Pre-emergence action against AVEFA in % (Avena fatua (AVEFA) [1]; 320 g/ha) | Pre-emergence action against VERPE in % ([2]; dosage 320 g/ha) | Post-emergence action against VERPE in % ([4]; dosage 80 g/ha) | Post-emergence action against PHBPU in % ([5]; dosage 80 g/ha) | Pre-emergence action against AMARE in % ([6]; 80 g/ha) | Pre-emergence action against AMARE in % ([6]; 320 g/ha) | Pre-emergence action against VIOTR in % (Viola tricolor (VIOTR) [8]; 320 g/ha, Viola tricolor) | Pre-emergence action against VIOTR in % (Viola tricolor (VIOTR) [8]; dosage 80 g/ha) | Pre-emergence action against ECHCG in % [9] | Post-emergence action against AMARE in % [10, 22] | Post-emergence action against LOLRI in % (Lolium rigidum (LOLRI) [11]; dosage 80 g/ha) | Post-emergence action against AVEFA in % (Avena fatua (AVEFA) [12]; 80 g/ha) | Pre-emergence action against ALOMY ([13]; 80 g/ha) | Pre-emergence action against ALOMY ([13]; 320 g/ha) | Pre-emergence action against MATIN in % [14] | Pre-emergence action against LOLRI in % (Lolium rigidum (LOLRI) [16]; dosage 320 g/ha) | Pre-emergence action against SETVI in % (Setaria viridis (SETVI) [17]; dosage 320 g/ha) | other results |
| --- | --- | --- | --- | --- | --- | --- | --- | --- | --- | --- | --- | --- | --- | --- | --- | --- | --- | --- | --- | --- | --- |
| 0% | 20% | 20% | CCOC(=O)[C@@H](C)Oc1nn(-c2ccccn2)c(-c2ccc(F)nc2)c1Br [Example I-91] | 100% | 100% | 80% | 80% | 90% | 100% | 100% | 90% | 100% | 90% | 90% | 90% | 90% | 100% | 90% | 100% | 100% | Post-emergence action against SETVI in % (Setaria viridis (SETVI) [3]; dosage 80 g/ha): 80%; Post-emergence action against ECHCG in % ([7]; dosage 80 g/ha): 80%; Post-emergence action against ALOMY in % ([15]; 80 g/ha): 90%; Pre-emergence action against LOLRI in % (Lolium rigidum (LOLRI) [16]; dosage 80 g/ha): 100%; Pre-emergence action against SETVI in % (Setaria viridis (SETVI) [17]; dosage 80 g/ha): 100% |
|  | 0% |  | CCOC(=O)[C@@H](C)Oc1nn(-c2ncccc2F)c(-c2ccc(F)nc2)c1F [Example I-320] | 90% |  |  |  | 80% | 90% | 100% |  | 90% | 80% |  |  |  | 90% | 80% | 100% | 90% | Post-emergence action against SETVI in % (Setaria viridis (SETVI) [3]; dosage 320 g/ha): 90%; Pre-emergence action against POLCO in % ([18]; dosage 320 g/ha): 90%; Post-emergence action against VERPE in % ([4]; 320 g/ha, VERPE): 90%; Post-emergence action against PHBPU in % ([5]; dosage 320 g/ha): 80%; Post-emergence action against ECHCG in % ([7]; dosage 320 g/ha): 90%; Post-emergence action against POLCO in % [19]: 80%; Post-emergence action against ABUTH in % [20]: 80%; Post-emergence action against AMARE in % ([10]; 320 g/ha, visual rating about 3 weeks after treatment): 80%; Post-emergence action against LOLRI in % (Lolium rigidum (LOLRI) [11]; dosage 320 g/ha): 90%; Post-emergence action against AVEFA in % (Avena fatua (AVEFA) [12]; 320 g/ha): 80%; Post-emergence action against ZEAMX in % (Zea mays (ZEAMX); 80 g/ha): 0%; Post-emergence action against ZEAMX in % (Zea mays (ZEAMX); 320 g/ha): 20%; Post-emergence action against VIOTR in % (Viola tricolor (VIOTR) [21]): 80%; Post-emergence action against ALOMY in % ([15]; 320 g/ha): 100% |
| 10% | 20% | 10% | COCCOCCOC(=O)[C@@H](C)Oc1nn(-c2ncccc2F)c(-c2ccc(F)nc2)c1Br [Example I-34] | 90% | 100% | 90% | 80% | 100% | 100% | 100% | 100% | 100% |  | 80% | 90% | 90% | 100% | 90% | 100% | 100% | Pre-emergence action against AVEFA in % (Avena fatua (AVEFA) [1]; 80 g/ha): 80%; Pre-emergence action against VERPE in % ([2]; dosage 80 g/ha): 90%; Pre-emergence action against POLCO in % ([18]; dosage 80 g/ha): 80%; Pre-emergence action against POLCO in % ([18]; dosage 320 g/ha): 90%; Post-emergence action against ZEAMX in % (Zea mays (ZEAMX); 80 g/ha): 10%; Post-emergence action against ALOMY in % ([15]; 80 g/ha): 90%; Pre-emergence action against LOLRI in % (Lolium rigidum (LOLRI) [16]; dosage 80 g/ha): 90%; Pre-emergence action against SETVI in % (Setaria viridis (SETVI) [17]; dosage 80 g/ha): 90% |

— US20240041042A1, “1-(PYRIDYL)-5-AZINYLPYRAZOLE DERIVATIVES, AND THEIR USE FOR CONTROL OF UNDESIRED PLANT GROWTH” (Bayer Aktiengesellschaft, priority 2020, published 2024)
